Data set [1] has as its system K562 (human acute myeloid leukemia). The experiment in a line: MTT in vitro cytotoxic test, K562. The note with it: K562 cells. The format is cell-based. An excerpt: (§1) MTT test was used for in vitro evaluation of antitumor activities of newly synthesized compounds on cell lines derived from normal tissues or tumors. Specifically, cell lines K562 (human […]), K562-Tax (human […] myeloid leukemia, paclitaxel resistant subline, overexpress multiple drug resistant protein PgP), CEM (T-lymfoblastic leukemia), CEM-DNR-bulk (T-lymfoblastic leukemia, doxorubicin resistant), A549 (human lung adenocarcinoma), HCT116 wt (human colorectal cancer, wild-type), HCT116p53−/−(human colorectal cancer, mutant p53) a U2OS (human bone osteosarcoma) were used.
(§2) Express characteristics, susceptibility profiles of classic antitumor drugs as well as methodology of cytotoxic MTT test have been repeatedly published {ref.:Noskova, V.; Dzubak, P.; Kuzmina, G.; Ludkova, A.; Stehlik, D.; Trojanec, R.; Janostakova, A.; Korinkova, G.; Mihal, V.; Hajduch, M., Neoplasma 2002, 49, 418-425}.

Data set [2] deals with CEM-DNR-bulk (T-lymfoblastic leukemia, doxorubicin resistant). The data set can be described thus: MTT in vitro cytotoxic test, CEM-DNR. The settings on record: Homo sapiens, CEM-DNR cells (doxorubicin resistant). The format is cell-based.
Text: as §1, §2

Data set [3] has as its system A549 (human lung adenocarcinoma). The experiment in a line: MTT in vitro cytotoxic test, A549. The format is cell-based. The note with it: A549 cells.
Text: as §1, §2

Data set [4] has as its system CCRF-CEM (CEM, T-lymfoblastic leukemia). The experiment in a line: MTT in vitro cytotoxic test, CCRF-CEM. The format is cell-based. The note with it: Homo sapiens, CCRF-CEM cells.
Text: as §1, §2

Data set [5] deals with HCT116 wt (human colorectal cancer, wild-type). The data set can be described thus: MTT in vitro cytotoxic test, HCT116. The format is cell-based. The note with it: HCT-116, HCT116 cells (p53 wild type).
Text: as §1, §2

Data set [6] deals with U2OS (human bone osteosarcoma). The data set can be described thus: MTT in vitro cytotoxic test, U2OS. The format is cell-based. The settings on record: U2OS cells.
Text: as §1, §2

For data set [7], the system named is HCT116p53−/− (human colorectal cancer, mutant p53). The experiment in a line: MTT in vitro cytotoxic test, HCT116p53. The format is cell-based. The note with it: HCT116p53−/− cells.
Text: as §1, §2

Data set [8] deals with K562-Tax (human acute myeloid leukemia, paclitaxel resistant subline). The data set can be described thus: MTT in vitro cytotoxic test, K562-TAX. The format is cell-based. The note with it: K562-TAX cells (paclitaxel resistant).
Text: as §1, §2

In data set [9] the test system is cancer cell lines of various histogenetic origin. The data set can be described thus: In vitro cytotoxic test, summary over cancer cell lines. The format is cell-based, human. The settings on record: text summary of Table 4.
Text: as §1, §2

Turning to `OC[C@H]1O[C@@H](n2c3ncnc(-c4ccco4)c3c3ccsc32)[C@H](O)[C@@H]1O` [Compound 1a, 4-(Furan-2-yl)-8-(β-D-ribofuranosyl)-8H-thieno[3′,2′:4,5]pyrrolo[2,3-d]pyrimidine], the IC50 in [1], in data set [2], in data set [3], in data set [4], in [5] and in data set [6] was 25 to 50 µM each time. For the same compound, the IC50 in data set [7] and in data set [8] was 25 to 50 µM throughout.
Take `OC[C@H]1O[C@@H](n2c3ncnc(-c4ccoc4)c3c3ccsc32)[C@H](O)[C@@H]1O` [Compound 1b, 4-(Furan-3-yl)-8-(β-D-ribofuranosyl)-8H-thieno[3′,2′:4,5]pyrrolo[2,3-d]pyrimidine]: the half-inhibitory concentration (IC50) in [1], in data set [2], in [3], in data set [4], in data set [5] and in data set [6] was 25 to 50 µM each time. The IC50 in [7] and in [8] was 25 to 50 µM in each case.
Regarding `OC[C@H]1O[C@@H](n2c3ncnc(-c4cc5ccccc5o4)c3c3ccsc32)[C@H](O)[C@@H]1O` [Compound 1c, 4-(Benzofuran-2-yl)-8-(β-D-ribofuranosyl)-8H-thieno[3′,2′:4,5]pyrrolo[2,3-d]pyrimidine], the IC50 in data set [1] was in the range of 25 to 50 µM; in data set [2], 10 to 25 µM; in [3], 25 to 50 µM; in data set [4], 10 to 25 µM; in [5], 25 to 50 µM; in [6], 25 to 50 µM. The IC50 in [7] lay in the range of 25 to 50 µM; in data set [8] it was 10 to 25 µM. In data set [9], the “IC50 values (range in words)” value is on record as “micromolar range”.
`Cc1ncnc2c1c1ccsc1n2[C@@H]1O[C@H](CO)[C@@H](O)[C@H]1O` [Compound 1d, 4-Methyl-8-(β-D-ribofuranosyl)-8H-thieno[3′,2′:4,5]pyrrolo[2,3-d]pyrimidine]: the melting point is 126 to 128 °C. In [1], this compound yielded an IC50 of 0.01 to 0.2 µM. For the same compound, the IC50 in [2] is 25 to 50 µM. Also, the “IC50 values (range in words)” value in data set [9] is “sub-micromolar to nanomolar”. This compound also displayed an IC50 in data set [3] of 0.2 to 0.9 µM. The IC50 in data set [4] was 0.01 to 0.2 µM. The half-maximal inhibitory concentration (IC50) in data set [5] lay within 0.2 to 0.9 µM. In addition, in data set [6], the IC50 lay in the range of 0.01 to 0.2 µM. Further, the IC50 in [7] lay in the range of 0.2 to 0.9 µM. Also, in data set [8], the IC50 was in the range of 0.9 to 10 µM.
In the case of `CN(C)c1ncnc2c1c1ccsc1n2[C@@H]1O[C@H](CO)[C@@H](O)[C@H]1O` [Compound 1e, 4-(N,N-dimethylamino)-8-(β-D-ribofuranosyl)-8H-thieno[3′,2′:4,5]pyrrolo[2,3-d]pyrimidine], the melting point was 117 °C. This compound registered an IC50 in data set [1] of 25 to 50 µM. In [2], this compound showed a half-inhibitory concentration (IC50) of 25 to 50 µM. In data set [3], this compound had an IC50 of 25 to 50 µM. The IC50 in data set [4] lay within 25 to 50 µM. The IC50 in [5] is 25 to 50 µM. For the same compound, the half-inhibitory concentration (IC50) in data set [6] lay in the range of 25 to 50 µM. In addition, the IC50 in [7] was in the range of 25 to 50 µM. The IC50 in data set [8] lay in the range of 25 to 50 µM.
For the compound `Nc1ncnc2c1c1ccsc1n2[C@@H]1O[C@H](CO)[C@@H](O)[C@H]1O` [Compound 1f, 4-Amino-8-(β-D-ribofuranosyl)-8H-thieno[3′,2′:4,5]pyrrolo[2,3-d]pyrimidine], the melting point was determined as 98 °C. In data set [1], this compound showed an IC50 of 25 to 50 µM. In data set [2], this compound returned an IC50 of 25 to 50 µM. In addition, in data set [9], the “IC50 values (range in words)” value was “micromolar range”. Further, the IC50 in data set [3] fell in the range of 25 to 50 µM. The IC50 in [4] lay in the range of 0.2 to 0.9 µM. For the same compound, the IC50 in data set [5] lay within 25 to 50 µM. For the same compound, the IC50 in [6] was 0.2 to 0.9 µM. Also, in data set [7], the IC50 fell in the range of 0.9 to 10 µM. The compound further displayed an IC50 in data set [8] of 0.2 to 0.9 µM.
Compound `COc1ncnc2c1c1ccsc1n2[C@@H]1O[C@H](CO)[C@@H](O)[C@H]1O` [Compound 1g, 4-Methoxy-8-(β-D-ribofuranosyl)-8H-thieno[3′,2′:4,5]pyrrolo[2,3-d]pyrimidine] registered a melting point of 159 to 160 °C. This compound also returned an IC50 in [1] of 0.2 to 0.9 µM. The IC50 in [2] was 25 to 50 µM. Also, the “IC50 values (range in words)” value in data set [9] is given as “sub-micromolar to nanomolar”. Also, in data set [3], the concentration for half-maximal inhibition (IC50) was 0.9 to 10 µM. The IC50 in data set [4] fell in the range of 0.01 to 0.2 µM. This compound gave an IC50 in data set [5] of 0.2 to 0.9 µM. The 50% inhibitory concentration (IC50) in [6] is 0.01 to 0.2 µM. In data set [7], this compound returned an IC50 of 0.2 to 0.9 µM. This compound also gave an IC50 in data set [8] of 10 to 25 µM.
Turning to `CSc1ncnc2c1c1ccsc1n2[C@@H]1O[C@H](CO)[C@@H](O)[C@H]1O` [Compound 1h, 4-(Methylsulfanyl)-8-(β-D-ribofuranosyl)-8H-thieno[3′,2′:4,5]pyrrolo[2,3-d]pyrimidine], the melting point lay within 148 to 152 °C. Moreover, the IC50 in data set [1] was in the range of 0.2 to 0.9 µM. In data set [2], this compound displayed an IC50 of 25 to 50 µM. The “IC50 values (range in words)” value in data set [9] is recorded as “sub-micromolar to nanomolar”. This compound returned an IC50 in data set [3] of 0.2 to 0.9 µM. This compound also had a half-maximal inhibitory concentration (IC50) in data set [4] of 0.01 to 0.2 µM. Moreover, in data set [5], the IC50 fell in the range of 0.01 to 0.2 µM. The half-inhibitory concentration (IC50) in data set [6] lay in the range of 0.01 to 0.2 µM. In data set [7], this compound displayed an IC50 of 0.2 to 0.9 µM. The compound further showed an IC50 in data set [8] of 10 to 25 µM.

In general, IC50 refers to the concentration needed to halve the response being measured. A lower IC50 goes with inhibition by little substance. Broadly, the melting point is the temperature of the solid-liquid transition.
